{"source": "PubChem BioAssay AID2060885", "about": "(Molecular Pharmacology Branch, DTP, NCI, 2025)", "system": "NCI-H23 complex spheroids with HUVEC/MSC, viability", "assay": "Anticancer human tumor NCI-H23 cell line growth inhibition [RAS];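 on all read-outs here: spheroids exposed to compound for 7 days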;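 on viability, T/C: 100% = DMSO vehicle control viability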", "settings": "for IC50: curve of first compound; for viability, T/C: stronger effect = lower value", "in_short": "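Agents were tested in combination matrices in half-log decrements from a top concentration at or near clinical Cmax (10 microM if undetermined). Targets were multi-cell spheroids of tumour lines plus HUVEC and MSC stromal cells.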", "key": {"[1]": {"settings": "second compound 0.00316 µM, first compound 0.0316 µM"}, "[2]": {"settings": "second compound 0.00316 µM, first compound 0.1 µM"}, "[3]": {"settings": "second compound 0.00316 µM, first compound 0.316 µM"}, "[4]": {"settings": "second compound 0.00316 µM, first compound 1 µM"}, "[5]": {"settings": "second compound 0.00316 µM, first compound 3.16 µM"}, "[6]": {"settings": "second compound 0.00316 µM, first compound 10 µM"}, "[7]": {"settings": "second compound 0.01 µM, first compound 0.0316 µM"}, "[8]": {"settings": "second compound 0.01 µM, first compound 0.1 µM"}, "[9]": {"settings": "second compound 0.01 µM, first compound 0.316 µM"}, "[10]": {"settings": "second compound 0.01 µM, first compound 1 µM"}, "[11]": {"settings": "second compound 0.01 µM, first compound 3.16 µM"}, "[12]": {"settings": "second compound 0.01 µM, first compound 10 µM"}, "[13]": {"settings": "second compound 0.0316 µM, first compound 0.0316 µM"}, "[14]": {"settings": "second compound 0.0316 µM, first compound 0.1 µM"}, "[15]": {"settings": "second compound 0.0316 µM, first compound 0.316 µM"}, "[16]": {"settings": "second compound 0.0316 µM, first compound 1 µM"}, "[17]": {"settings": "second compound 0.0316 µM, first compound 3.16 µM"}, "[18]": {"settings": "second compound 0.0316 µM, first compound 10 µM"}, "[19]": {"settings": "second compound 0.1 µM, first compound 0.0316 µM"}, "[20]": {"settings": "second compound 0.1 µM, first compound 0.1 µM"}, "[21]": {"settings": "second compound 0.1 µM, first compound 0.316 µM"}, "[22]": {"settings": "second compound 0.1 µM, first compound 1 µM"}, "[23]": {"settings": "second compound 0.1 µM, first compound 3.16 µM"}, "[24]": {"settings": "second compound 0.1 µM, first compound 10 µM"}, "[25]": {"settings": "second compound 0.316 µM, first compound 0.0316 µM"}, "[26]": {"settings": "second compound 0.316 µM, first compound 0.1 µM"}, "[27]": {"settings": "second compound 0.316 µM, first compound 0.316 µM"}, "[28]": {"settings": "second compound 0.316 µM, first compound 1 µM"}, "[29]": {"settings": "second compound 0.316 µM, first compound 3.16 µM"}, "[30]": {"settings": "second compound 0.316 µM, first compound 10 µM"}, "[31]": {"settings": "second compound 1 µM, first compound 0.0316 µM"}, "[32]": {"settings": "second compound 1 µM, first compound 0.1 µM"}, "[33]": {"settings": "second compound 1 µM, first compound 0.316 µM"}, "[34]": {"settings": "second compound 1 µM, first compound 1 µM"}, "[35]": {"settings": "second compound 1 µM, first compound 3.16 µM"}, "[36]": {"settings": "second compound 1 µM, first compound 10 µM"}}, "data": [{"smiles": "CC1(O)CCCC1n1c(=O)c(C(F)F)cc2cnc(NC3CCN(S(C)(=O)=O)CC3)nc21", "note": "(centres undefined) + C=CC(=O)N1CCN(c2nc(OCC3CCCN3C)nc3c(F)c(-c4nc(N)cc(C)c4C(F)(F)F)c(Cl)cc23)C(C)C1", "values": [{"measurement": "IC50", "setting": "second compound 0.00316 µM", "value": "< 31.6", "unit": "nM"}, {"measurement": "IC50", "setting": "second compound 0.01 µM", "value": "< 31.6", "unit": "nM"}, {"measurement": "IC50", "setting": "second compound 0.0316 µM", "value": "< 31.6", "unit": "nM"}, {"measurement": "IC50", "setting": "second compound 0.1 µM", "value": "< 31.6", "unit": "nM"}, {"measurement": "IC50", "setting": "second compound 0.316 µM", "value": "< 31.6", "unit": "nM"}, {"measurement": "IC50", "setting": "second compound 1 µM", "value": "< 31.6", "unit": "nM"}, {"measurement": "viability, T/C", "setting": "[1]", "value": 46.8, "unit": "%"}, {"measurement": "viability, T/C", "setting": "[2]", "value": 41.8, "unit": "%"}, {"measurement": "viability, T/C", "setting": "[3]", "value": 30.8, "unit": "%"}, {"measurement": "viability, T/C", "setting": "[4]", "value": 29.7, "unit": "%"}, {"measurement": "viability, T/C", "setting": "[5]", "value": 28.1, "unit": "%"}, {"measurement": "viability, T/C", "setting": "[6]", "value": 6.28, "unit": "%"}, {"measurement": "viability, T/C", "setting": "[7]", "value": 44.6, "unit": "%"}, {"measurement": "viability, T/C", "setting": "[8]", "value": 32.1, "unit": "%"}, {"measurement": "viability, T/C", "setting": "[9]", "value": 24.9, "unit": "%"}, {"measurement": "viability, T/C", "setting": "[10]", "value": 27.3, "unit": "%"}, {"measurement": "viability, T/C", "setting": "[11]", "value": 25.9, "unit": "%"}, {"measurement": "viability, T/C", "setting": "[12]", "value": 4.38, "unit": "%"}, {"measurement": "viability, T/C", "setting": "[13]", "value": 36.1, "unit": "%"}, {"measurement": "viability, T/C", "setting": "[14]", "value": 26.5, "unit": "%"}, {"measurement": "viability, T/C", "setting": "[15]", "value": 23.1, "unit": "%"}, {"measurement": "viability, T/C", "setting": "[16]", "value": 25.3, "unit": "%"}, {"measurement": "viability, T/C", "setting": "[17]", "value": 26.5, "unit": "%"}, {"measurement": "viability, T/C", "setting": "[18]", "value": 3.8, "unit": "%"}, {"measurement": "viability, T/C", "setting": "[19]", "value": 34.6, "unit": "%"}, {"measurement": "viability, T/C", "setting": "[20]", "value": 28.7, "unit": "%"}, {"measurement": "viability, T/C", "setting": "[21]", "value": 22.1, "unit": "%"}, {"measurement": "viability, T/C", "setting": "[22]", "value": 22.6, "unit": "%"}, {"measurement": "viability, T/C", "setting": "[23]", "value": 23.6, "unit": "%"}, {"measurement": "viability, T/C", "setting": "[24]", "value": 4.58, "unit": "%"}, {"measurement": "viability, T/C", "setting": "[25]", "value": 31.2, "unit": "%"}, {"measurement": "viability, T/C", "setting": "[26]", "value": 23.1, "unit": "%"}, {"measurement": "viability, T/C", "setting": "[27]", "value": 22.4, "unit": "%"}, {"measurement": "viability, T/C", "setting": "[28]", "value": 20.3, "unit": "%"}, {"measurement": "viability, T/C", "setting": "[29]", "value": 27.6, "unit": "%"}, {"measurement": "viability, T/C", "setting": "[30]", "value": 3.96, "unit": "%"}, {"measurement": "viability, T/C", "setting": "[31]", "value": 27.1, "unit": "%"}, {"measurement": "viability, T/C", "setting": "[32]", "value": 25.9, "unit": "%"}, {"measurement": "viability, T/C", "setting": "[33]", "value": 21, "unit": "%"}, {"measurement": "viability, T/C", "setting": "[34]", "value": 22, "unit": "%"}, {"measurement": "viability, T/C", "setting": "[35]", "value": 23.5, "unit": "%"}, {"measurement": "viability, T/C", "setting": "[36]", "value": 2.26, "unit": "%"}]}, {"smiles": "CCC(CC)c1cc(NC2CCC(N)C2)n2nccc2n1", "note": "(centres undefined) + C=CC(=O)N1CCN(c2nc(OCC3CCCN3C)nc3c(F)c(-c4nc(N)cc(C)c4C(F)(F)F)c(Cl)cc23)C(C)C1", "values": [{"measurement": "IC50", "setting": "second compound 0.00316 µM", "value": 1010, "unit": "nM"}, {"measurement": "IC50", "setting": "second compound 0.01 µM", "value": 557, "unit": "nM"}, {"measurement": "IC50", "setting": "second compound 0.0316 µM", "value": "< 31.6", "unit": "nM"}, {"measurement": "IC50", "setting": "second compound 0.1 µM", "value": "< 31.6", "unit": "nM"}, {"measurement": "IC50", "setting": "second compound 0.316 µM", "value": "< 31.6", "unit": "nM"}, {"measurement": "IC50", "setting": "second compound 1 µM", "value": "< 31.6", "unit": "nM"}, {"measurement": "viability, T/C", "setting": "[1]", "value": 64.8, "unit": "%"}, {"measurement": "viability, T/C", "setting": "[2]", "value": 75.2, "unit": "%"}, {"measurement": "viability, T/C", "setting": "[3]", "value": 57.1, "unit": "%"}, {"measurement": "viability, T/C", "setting": "[4]", "value": 51.4, "unit": "%"}, {"measurement": "viability, T/C", "setting": "[5]", "value": 5.05, "unit": "%"}, {"measurement": "viability, T/C", "setting": "[6]", "value": 0.45, "unit": "%"}, {"measurement": "viability, T/C", "setting": "[7]", "value": 52.7, "unit": "%"}, {"measurement": "viability, T/C", "setting": "[8]", "value": 62.7, "unit": "%"}, {"measurement": "viability, T/C", "setting": "[9]", "value": 55.2, "unit": "%"}, {"measurement": "viability, T/C", "setting": "[10]", "value": 43.2, "unit": "%"}, {"measurement": "viability, T/C", "setting": "[11]", "value": 4.13, "unit": "%"}, {"measurement": "viability, T/C", "setting": "[12]", "value": 0.6, "unit": "%"}, {"measurement": "viability, T/C", "setting": "[13]", "value": 44.7, "unit": "%"}, {"measurement": "viability, T/C", "setting": "[14]", "value": 47.1, "unit": "%"}, {"measurement": "viability, T/C", "setting": "[15]", "value": 42.9, "unit": "%"}, {"measurement": "viability, T/C", "setting": "[16]", "value": 36.5, "unit": "%"}, {"measurement": "viability, T/C", "setting": "[17]", "value": 3.39, "unit": "%"}, {"measurement": "viability, T/C", "setting": "[18]", "value": 0.5, "unit": "%"}, {"measurement": "viability, T/C", "setting": "[19]", "value": 39.3, "unit": "%"}, {"measurement": "viability, T/C", "setting": "[20]", "value": 50.3, "unit": "%"}, {"measurement": "viability, T/C", "setting": "[21]", "value": 38.7, "unit": "%"}, {"measurement": "viability, T/C", "setting": "[22]", "value": 36.5, "unit": "%"}, {"measurement": "viability, T/C", "setting": "[23]", "value": 2.7, "unit": "%"}, {"measurement": "viability, T/C", "setting": "[24]", "value": 0.48, "unit": "%"}, {"measurement": "viability, T/C", "setting": "[25]", "value": 36.2, "unit": "%"}, {"measurement": "viability, T/C", "setting": "[26]", "value": 37.8, "unit": "%"}, {"measurement": "viability, T/C", "setting": "[27]", "value": 39.9, "unit": "%"}, {"measurement": "viability, T/C", "setting": "[28]", "value": 36.7, "unit": "%"}, {"measurement": "viability, T/C", "setting": "[29]", "value": 4.1, "unit": "%"}, {"measurement": "viability, T/C", "setting": "[30]", "value": 0.41, "unit": "%"}, {"measurement": "viability, T/C", "setting": "[31]", "value": 34.6, "unit": "%"}, {"measurement": "viability, T/C", "setting": "[32]", "value": 42.8, "unit": "%"}, {"measurement": "viability, T/C", "setting": "[33]", "value": 41.1, "unit": "%"}, {"measurement": "viability, T/C", "setting": "[34]", "value": 38.5, "unit": "%"}, {"measurement": "viability, T/C", "setting": "[35]", "value": 4.68, "unit": "%"}, {"measurement": "viability, T/C", "setting": "[36]", "value": 0.53, "unit": "%"}]}]}
